Experimental data from US20210196724A1, “BIARYL COMPOSITIONS AND METHODS FOR MODULATING A KINASE CASCADE” (Athenex, Inc., priority 2016, published 2021).

Experiments:
Format in all cases: cell-based
HL-60 cells = assay: CellTiter-Glo cell viability, HL-60; details: Homo sapiens, 72 h
Description: (§1) The cell viability of 50 cancer cell lines was studied after treatment with Compound 121. Inhibition concentration values at 50% (IC50) were determined using CellTiter-Glo luminescent cell viability assay after incubation with different compound concentrations. GI50 values were determined according to the examples described above. Each cell line was treated with Compound 121, a standard chemotherapy drug as a reference control, and culture medium as a vehicle control.
(§2) All cells were cultured in media supplemented with 10-15% FBS at 37° C. in the presence of 5% CO2 and at 95% humidity. The culture medium was purchased from GIBCO or Sigma, USA. Cisplatin was chosen as the reference control and purchased from Hospira Australia Pty Ltd. The cell lines studied are presented in Table 5.
(§3) Cells were harvested during a logarithmic growth period and cell number count was determined using Count-star. Cell concentrations were adjusted to 4.44×10^4 cells/mL with respective culture medium. 90 μL of cell suspensions were added to two 96-well plates (plates A and B) with a final cell density of 4×10^3 cells/well.
(§4) 10 μL of culture medium was added to each well of plate A for TO reading. The plate was allowed to equilibrate at room temperature for approximately 30 min. 50 μL of CellTiter-Glo was added to each well and the contents were mixed for 5 min on an orbital shaker to induce cell lysis. The plate was allowed to incubate at room temperature for 20 min to stabilize luminescent signal.
(§5) 10 μM Compound 121 in media was serially diluted 3.16-fold to achieve 9 dose levels. Similarly, 100 μM reference control in media was serially diluted 3.16-fold to prepare reference control solutions. 10 μL drug solution and 10 μL of reference control was dispensed into each well in plate B.
(§6) Test plate B was incubated for 72 h in a humidified incubator at 37° C. in the presence of 5% CO2 and then subjected to CTG assay. The plate was allowed to equilibrate at room temperature for about 30 min. 50 μL of CellTiter-Glo was added to each well and the contents were mixed for 5 min on an orbital shaker to induce cell lysis. The plate was allowed to incubate at room temperature for 20 min to stabilize luminescent signal.
(§7) IC50 and GI50 values for each of the 50 cell lines are presented in Table 6 and were calculated based on the dose-response curves depicted in FIGS. 1-50. The dose-response curves were fitted using nonlinear regression model with a sigmoidal dose response. The formula for calculating survival rate was calculated by the formula:
(§8) Survival rate (%)=(LumTest article−LumMedium control)/(LumNone treated−LumMedium control)×100.

NCI-N87 cells = assay: CellTiter-Glo cell viability, NCI-N87; details: Homo sapiens, 72 h
Description: as §1, §2, §3, §4, §5, §6, §7, §8

JEG-3 cells = assay: CellTiter-Glo cell viability, JEG-3; details: Homo sapiens, 72 h
Description: as §1, §2, §3, §4, §5, §6, §7, §8

EBC-1 cells = assay: CellTiter-Glo cell viability, EBC-1; details: Homo sapiens, 72 h
Description: as §1, §2, §3, §4, §5, §6, §7, §8

NCI-H1155 cells = assay: CellTiter-Glo cell viability, NCI-H1155; details: Homo sapiens, 72 h
Description: as §1, §2, §3, §4, §5, §6, §7, §8

A2058 cells = assay: CellTiter-Glo cell viability, A2058; details: Homo sapiens, 72 h
Description: as §1, §2, §3, §4, §5, §6, §7, §8

TJ905 cells = assay: CellTiter-Glo cell viability, TJ905; details: 72 h
Description: as §1, §2, §3, §4, §5, §6, §7, §8

BT474 cells = assay: CellTiter-Glo cell viability, BT474; details: Homo sapiens, BT-474, 72 h
Description: as §1, §2, §3, §4, §5, §6, §7, §8

KARPAS-299 cells = assay: CellTiter-Glo cell viability, KARPAS-299; details: Homo sapiens, 72 h
Description: as §1, §2, §3, §4, §5, §6, §7, §8

JHH-5 cells = assay: CellTiter-Glo cell viability, JHH-5; details: 72 h
Description: as §1, §2, §3, §4, §5, §6, §7, §8

Molt-4 cells = assay: CellTiter-Glo cell viability, Molt-4; details: Homo sapiens, 72 h
Description: as §1, §2, §3, §4, §5, §6, §7, §8

SCC-4 cells = assay: CellTiter-Glo cell viability, SCC-4; details: Homo sapiens, 72 h
Description: as §1, §2, §3, §4, §5, §6, §7, §8

RPMI 8226 cells = assay: CellTiter-Glo cell viability, RPMI 8226; details: Homo sapiens, 72 h
Description: as §1, §2, §3, §4, §5, §6, §7, §8

MX-1 cells = assay: CellTiter-Glo cell viability, MX-1; details: Homo sapiens, MX1, 72 h
Description: as §1, §2, §3, §4, §5, §6, §7, §8

AsPC-1 cells = assay: CellTiter-Glo cell viability, AsPC-1; details: Homo sapiens, ASPC1, 72 h
Description: as §1, §2, §3, §4, §5, §6, §7, §8

HuCCT1 cells = assay: CellTiter-Glo cell viability, HuCCT1; details: Homo sapiens, HuCCT-1, 72 h
Description: as §1, §2, §3, §4, §5, §6, §7, §8

SK-N-FI cells = assay: CellTiter-Glo cell viability, SK-N-FI; details: Homo sapiens, 72 h
Description: as §1, §2, §3, §4, §5, §6, §7, §8

KP4 cells = assay: CellTiter-Glo cell viability, KP4; details: Homo sapiens, KP-4, 72 h
Description: as §1, §2, §3, §4, §5, §6, §7, §8

HCT-116 cells = assay: CellTiter-Glo cell viability, HCT-116; details: Homo sapiens, 72 h
Description: as §1, §2, §3, §4, §5, §6, §7, §8

A-172 cells = assay: CellTiter-Glo cell viability, A-172; details: Homo sapiens, 72 h
Description: as §1, §2, §3, §4, §5, §6, §7, §8

NCI-H209 cells = assay: CellTiter-Glo cell viability, NCI-H209; details: Homo sapiens, 72 h
Description: as §1, §2, §3, §4, §5, §6, §7, §8

[1] = top conc. 10 μM Compound 121, 100 μM cisplatin

With `Cc1cc(N2CCOC[C@@H]2C)ccc1-c1ccc(CC(=O)NCc2ccc(F)cc2)nc1` [Compound 121] the GI50 (HL-60 cells; read-out: Absolute GI50) was 7 nM, the IC50 (HL-60 cells; read-out: Absolute IC50) was 8 nM and the inhibition at 10 µM (HL-60 cells; [1]) was 99.8%. The GI50 (NCI-N87 cells; read-out: Absolute GI50) was 4 nM, the IC50 (NCI-N87 cells; read-out: Absolute IC50) was 4 nM and the inhibition at 10 µM (NCI-N87 cells; [1]) was 49.6%. It also gave a GI50 (JEG-3 cells; read-out: Absolute GI50) of 8 nM, an IC50 (JEG-3 cells; read-out: Absolute IC50) of 9 nM and an inhibition at 10 µM (JEG-3 cells; [1]) of 86.5%. For the same compound, the GI50 (EBC-1 cells; read-out: Absolute GI50) was 4 nM, the IC50 (EBC-1 cells; read-out: Absolute IC50) was 4 nM and the inhibition at 10 µM (EBC-1 cells; [1]) was 56.8%. It also gave a GI50 (NCI-H1155 cells; read-out: Absolute GI50) of 6 nM, an IC50 (NCI-H1155 cells; read-out: Absolute IC50) of 7 nM and an inhibition at 10 µM (NCI-H1155 cells; [1]) of 87.3%. For the same compound, the GI50 (A2058 cells; read-out: Absolute GI50) was 8 nM, the IC50 (A2058 cells; read-out: Absolute IC50) was 8 nM and the inhibition at 10 µM (A2058 cells; [1]) was 98.1%. For the same compound, the GI50 (TJ905 cells; read-out: Absolute GI50) was 4 nM, the IC50 (TJ905 cells; read-out: Absolute IC50) was 4 nM and the inhibition at 10 µM (TJ905 cells; [1]) was 70%. The GI50 (BT474 cells; read-out: Absolute GI50) was 12 nM, the IC50 (BT474 cells; read-out: Absolute IC50) was greater than 10000 nM and the inhibition at 10 µM (BT474 cells; [1]) was 37.9%. The GI50 (KARPAS-299 cells; read-out: Absolute GI50) was 6 nM, the IC50 (KARPAS-299 cells; read-out: Absolute IC50) was 6 nM and the inhibition at 10 µM (KARPAS-299 cells; [1]) was 99.4%. It also gave a GI50 (JHH-5 cells; read-out: Absolute GI50) of 7 nM, an IC50 (JHH-5 cells; read-out: Absolute IC50) of 7 nM and an inhibition at 10 µM (JHH-5 cells; [1]) of 80.5%. It also gave a GI50 (Molt-4 cells; read-out: Absolute GI50) of 13 nM, an IC50 (Molt-4 cells; read-out: Absolute IC50) of 14 nM and an inhibition at 10 µM (Molt-4 cells; [1]) of 99.6%. It also gave a GI50 (SCC-4 cells; read-out: Absolute GI50) of 5 nM, an IC50 (SCC-4 cells; read-out: Absolute IC50) of 6 nM and an inhibition at 10 µM (SCC-4 cells; [1]) of 86.1%. It also gave a GI50 (RPMI 8226 cells; read-out: Absolute GI50) of 5 nM, an IC50 (RPMI 8226 cells; read-out: Absolute IC50) of 6 nM and an inhibition at 10 µM (RPMI 8226 cells; [1]) of 94.8%. The GI50 (MX-1 cells; read-out: Absolute GI50) was 11 nM, the IC50 (MX-1 cells; read-out: Absolute IC50) was 18 nM and the inhibition at 10 µM (MX-1 cells; [1]) was 66.8%. For the same compound, the GI50 (AsPC-1 cells; read-out: Absolute GI50) was 12 nM, the IC50 (AsPC-1 cells; read-out: Absolute IC50) was greater than 10000 nM and the inhibition at 10 µM (AsPC-1 cells; [1]) was 51.2%. It also gave a GI50 (HuCCT1 cells; read-out: Absolute GI50) of 4 nM, an IC50 (HuCCT1 cells; read-out: Absolute IC50) of 4 nM and an inhibition at 10 µM (HuCCT1 cells; [1]) of 54%. It also gave a GI50 (SK-N-FI cells; read-out: Absolute GI50) of 3 nM, an IC50 (SK-N-FI cells; read-out: Absolute IC50) of 4 nM and an inhibition at 10 µM (SK-N-FI cells; [1]) of 91.4%. For the same compound, the GI50 (KP4 cells; read-out: Absolute GI50) was 7 nM, the IC50 (KP4 cells; read-out: Absolute IC50) was 8 nM and the inhibition at 10 µM (KP4 cells; [1]) was 90.8%. It also gave a GI50 (HCT-116 cells; read-out: Absolute GI50) of 9 nM, an IC50 (HCT-116 cells; read-out: Absolute IC50) of 9 nM and an inhibition at 10 µM (HCT-116 cells; [1]) of 94.4%. It also gave a GI50 (A-172 cells; read-out: Absolute GI50) of 6 nM, an IC50 (A-172 cells; read-out: Absolute IC50) of 7 nM and an inhibition at 10 µM (A-172 cells; [1]) of 92.8%. It also gave a GI50 (NCI-H209 cells; read-out: Absolute GI50) of 17 nM, an IC50 (NCI-H209 cells; read-out: Absolute IC50) of 20 nM and an inhibition at 10 µM (NCI-H209 cells; [1]) of 73.7%.
